The nature of one data set: Solubility. It is filed as physicochemical.
The target of data set [1] is T1, aryl hydrocarbon receptor (AhR) (Mus musculus, UniProt P30561).
T1 sequence (P30561 10-848): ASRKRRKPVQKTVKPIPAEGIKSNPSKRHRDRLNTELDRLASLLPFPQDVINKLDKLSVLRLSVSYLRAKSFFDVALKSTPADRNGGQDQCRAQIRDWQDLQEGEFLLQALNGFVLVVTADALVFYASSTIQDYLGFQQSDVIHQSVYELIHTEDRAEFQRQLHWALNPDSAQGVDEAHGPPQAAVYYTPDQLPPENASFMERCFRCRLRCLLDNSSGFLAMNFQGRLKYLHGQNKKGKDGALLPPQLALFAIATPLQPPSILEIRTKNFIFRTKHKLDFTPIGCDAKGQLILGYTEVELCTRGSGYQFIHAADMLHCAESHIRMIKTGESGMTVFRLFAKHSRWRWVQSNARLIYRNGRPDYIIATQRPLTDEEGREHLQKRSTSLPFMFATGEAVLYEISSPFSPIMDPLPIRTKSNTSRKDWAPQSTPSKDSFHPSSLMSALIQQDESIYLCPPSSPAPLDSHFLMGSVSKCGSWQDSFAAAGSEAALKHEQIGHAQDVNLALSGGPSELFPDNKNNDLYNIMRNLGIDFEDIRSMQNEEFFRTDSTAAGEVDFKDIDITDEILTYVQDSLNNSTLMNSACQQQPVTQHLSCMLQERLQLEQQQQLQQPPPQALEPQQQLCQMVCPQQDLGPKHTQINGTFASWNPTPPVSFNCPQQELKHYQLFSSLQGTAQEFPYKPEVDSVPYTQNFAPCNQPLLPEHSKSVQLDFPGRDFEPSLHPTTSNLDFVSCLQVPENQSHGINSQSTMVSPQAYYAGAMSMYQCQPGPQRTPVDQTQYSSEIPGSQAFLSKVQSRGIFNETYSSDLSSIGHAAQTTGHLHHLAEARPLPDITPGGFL
The data set can be described thus: ITE biological activity: AhRR gene expression in BMDCs by qPCR. It counts as cell-based. The conditions noted are these: 24 h, 14 μmol·L^−1 ITE or equivalent amount as NPs. Here is the method: Mouse bone marrow dendritic cells: BMDCs were prepared from progenitor cells isolated from the femurs and tibias of female mice between 8 and 10 wk of age, as previously described in Inaba et al. (“Generation of large numbers of dendritic cells from mouse bone marrow cultures supplemented with granulocyte/macrophage colony-stimulating factor”; J Exp Med 1992, 176 (6), 1693-702). Bone marrow cells were plated on 15 cm petri dishes cell culture for a final volume of 20 mL per plate in Iscove's Modified Dulbecco's Medium (IMDM) containing 10% FCS, penicillin/streptomycin 100 μg/ml, L-Glutamine 2 mmol.L^−1 and β-mercapthoethanol 50 μmol.L^−1, and supplemented with 10 ng/ml murine GM-CSF (R&D Systems) for 8 days. Half of the medium was replaced on day 4 of culture.
ITE biological activity. On day 7 of BMDC culture, cells were incubated 24 h with 14 μmol·L^−1 ITE in 0.2% DMSO and equivalent amount of ITE as USPIO-PEG-ITE NPs in water. On day 8, total RNA was prepared by the RNAspin mini kit (GE Healthcare). cDNA was obtained using the RevertAid RT Reverse Transcription Kit (Thermo Scientific) with 1 μg of total RNA. Quantitative PCR (qPCR) was performed with the SYBR Green method using Takyon ROX qPCR SYBR MasterMix blue dTTP (Eurogentec).
For orientation: In qPCR the cycle at which signal appears reflects the starting amount.

A short description of data set [2]: Quantification of NP uptake in organs by VSM magnetometry. It counts as in vivo, NOD and B6 mice. The protocol: For mechanistic studies, MRI and histological studies, 3 B6 mice/time points aged 10 and 12 weeks were used as control. 3 Female NOD mice/time points were used as pre-diabetic mice between 10 and 12 weeks of age. NPs were administrated intravenously (i.v.) as a bolus of 200 μmolFe/kg diluted in 200 μL of vehicle (NaCl 0.9%/Glucose 5%).
Quantification of NP uptake in organs by VSM: Pancreas, lung, liver, spleen, kidneys and PLN were collected 1 h, 5 h, 24 h, 48 h and 72 h after intravenous injection of USPIO-PEG-ITE-P3UMPI (200 μmolFe/kg) or vehicle (NaCl 0.9%/Glucose 5%) in NOD and B6 mice. Collected organs were frozen in liquid nitrogen, lyophilized and ground to a powder using a mortar and pestle. Sample magnetism was analyzed by a VSM (VSM Quantum Design, Versalab) at room temperature. Amount of iron per organ was calculated from the NP magnetization at saturation (expressed in emu/g of iron).

Molecules are shown by their SMILES.

In the case of `COC(=O)c1csc(C(=O)c2c[nH]c3ccccc23)n1` [ITE, 2-(1′H-indole-3′-carbonyl)-thiazole-4-carboxylic acid methyl ester], in the data set “Solubility”, the Solubility entry was “soluble only in DMSO and ethanol”. Besides, the AhRR expression result in data set [1] is on record as “induced”. The “Estimation of drug dose released in pancreas: ITE” value is 0.39 mmol in data set [2] (B6 mice, 1 H after iv injection of USPIO-PEG-ITE-P3UmPI, considering no drug release before pancreas targeting); 0.99 mmol in data set [2] (B6 mice, 5 H after iv injection); 0 mmol in data set [2] (B6 mice, 24 H after iv injection); 0.15 mmol in data set [2] (B6 mice, 48 H after iv injection); 0.33 mmol in data set [2] (B6 mice, 72 H after iv injection); 1.54 mmol in data set [2] (NOD mice, 1 H after iv injection). Moreover, the “Estimation of drug dose released in pancreas: ITE” value is listed as 2.98 mmol in data set [2] (NOD mice, 5 H after iv injection); 0.37 mmol in data set [2] (NOD mice, 24 H after iv injection); 1.78 mmol in data set [2] (NOD mice, 48 H after iv injection); 0.91 mmol in data set [2] (NOD mice, 72 H after iv injection).

Values taken from patent publication US20210220481A1, “BIOCOMPATIBLE TOLEROGENIC NANOPARTICLES” (INSERM (Institut National de la Santé et de la Recherche …, priority 2018, published 2021).
